Assay [1] deals with T1, recombinant CREBBP bromodomain (Homo sapiens, UniProt Q92793).
T1 construct: recombinant CREBBP bromodomain obtained from BPS Bioscience, USA; purchased BPS Bioscience, USA
In words: CBP TR-FRET displacement assay. The class given is binding. The following applies: for IC50: dose-response, read-out: IC50 (group A, B, C). Summed up: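 CREBBP bromodomain (50 nM) preincubated 30 min at room temperature with 500 nM biotinylated ligand in HEPES pH 7.5 buffer with TCEP, then 60 min with compound. Eu-anti-His/APC-streptavidin TR-FRET 665/615 nm ratio read; IC50 from sigmoidal dose-response fit.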
On the technique in general: Time-resolved FRET reads energy transfer from a long-lived donor to a nearby acceptor.

In assay [2] the target is T2, recombinant BRD4 FL bromodomain (Homo sapiens, UniProt O60885).
T2 construct: fused on or other part: 6xHis tag, inferred from detection with Mab ANTI 6HIS-XL665
In words: BRD4 FL TR-FRET displacement assay. To be noted: BRD4 FL; for IC50: dose-response, read-out: IC50 (group A, B, C); for inhibition at 10 µM: compound at 10 μM, read-out: % Inhibition (10 μM). Format: binding. On the procedure: The potency of compounds to inhibit BRD4 FL enzyme was tested in a TR-FRET displacement assay using recombinant BRD4 FL bromodomain obtained In-house. The assay buffer was 50 mM HEPES (pH 7.5), 50 mM NaCl, 500 μM CHAPS. 10 nM of BRD4 FL & 300 nM of Biotinylated Acetyl histone H4 (Lys 5, 8, 12, 16) (Millipore, USA) was incubated at room temperature for 30 minutes, the reaction was initiated by adding the pre-incubated enzyme ligand mixture to the test compounds. After 30 min incubation, the reaction was stopped by the addition of stop mix containing 1 nM of Europium Streptavidin cryptate (Cisbio, USA) and 5 nM of Mab ANTI 6HIS-XL665 (Cisbio, USA) dilutes in assay buffer containing 2.4M Potassium Fluoride. Fluorescence emission of the samples at 665 and 615 nm were measured at an excitation of 340 nm and their ratio was plotted against the compound concentrations to generate dose-response curve. The percent inhibition of the test compounds is calculated using the ratio of enzyme activity controls.
Selected compounds of the present invention were screened in the above-mentioned assay procedures and IC50 values were determined by fitting the dose-response data to sigmoidal curve fitting equation using Graph pad prism software V7.

The record followed here is patent US20230322724A1, “HETEROCYCLIC COMPOUNDS AS CBP/EP300 BROMODOMAIN INHIBITORS” (AURIGENE ONCOLOGY LIMITED, priority 2020, published 2023).

SMILES strings stand for the structures. A value given as a limit tells only on which side of the number the result lay.

T1 sequence (Q92793 1085-1192 limits assumed): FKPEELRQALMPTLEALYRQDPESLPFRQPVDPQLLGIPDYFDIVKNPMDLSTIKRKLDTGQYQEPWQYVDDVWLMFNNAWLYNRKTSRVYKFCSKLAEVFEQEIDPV

The IC50 is the concentration needed to halve the response being measured. With `CNC(=O)C1CCN(c2cc3c(cc2F)N(c2cc(OC)cc4c2cc(C)c(=O)n4C)CCN3C)CC1` [Example 33], the concentration for half-maximal inhibition (IC50) is 51 to 100 nM in assay [1] and 2010 to 5000 nM in assay [2].

Usually inhibition stands for the drop in the measured response relative to a control, in per cent. On to `CCC(=O)NS(=O)(=O)c1ccc2c(c1)N(c1cc(OC)cc3c1cc(C)c(=O)n3C)CCN2C` [Example 106], for which, in assay [1], the concentration for half-maximal inhibition (IC50) was in the range of 51 to 100 nM. The inhibition at 10 µM in assay [2] came to 16%.

For `CC(=O)N1CCN(c2cc3c(cc(C)c(=O)n3C)c(N3CCCc4cc(-c5cnn(C)c5)c(C(F)F)cc43)n2)CC1` [Example 200, 7-(4-Acetylpiperazin-1-yl)-5-(7-(difluoromethyl)-6-(1-methyl-1H-pyrazol-4-yl)-3,4-dihydroquinolin-1(2H)-yl)-1,3-dimethyl-1,6-naphthyridin-2(1H)-one], the IC50 is less than 50 nM in assay [1] and 2010 to 5000 nM in assay [2].

Consider `CNC(=O)C1CN(c2cc3c(cc2C#N)N(c2cc(OC)cc4c2cc(C)c(=O)n4C)CCN3C)C1` [Example 27], for which the IC50 in assay [1] lay in the range of 51 to 100 nM; in assay [2], 2010 to 5000 nM.

Take `Cc1cc2c(N3CCCc4cc(-c5cnn(C)c5)c(O)cc43)nc(N3CCC(O)C3)cc2n(C)c1=O` (stereo not drawn) [Example 245, 5-(7-Hydroxy-6-(1-methyl-1H-pyrazol-4-yl)-3,4-dihydroquinolin-1(2H)-yl)-7-(3-hydroxypyrrolidin-1-yl)-1,3-dimethyl-1,6-naphthyridin-2(1H)-one]: the IC50 in assay [1] was less than 50 nM; in assay [2], 2010 to 5000 nM.

For `CCn1c(=O)c(C)cc2c(N3CCN(C)c4cc(-c5cnn(C)c5)c(C#N)cc43)cccc21` [Example 46], in assay [1] (compound at 10 μM), the inhibition at 10 µM turned out to be 98%. Besides, the values for the IC50 in assay [1] and in assay [2] were greater than 10 nM and 2010 to 5000 nM, respectively.

On to `COc1cc(N2CCN(C)c3ccc(CC(=O)NO)cc32)c2cc(C)c(=O)n(C)c2c1` [Example 83, N-hydroxy-2-(4-(7-methoxy-1,3-dimethyl-2-oxo-1,2-dihydroquinolin-5-yl)-1-methyl-1,2,3,4-tetrahydroquinoxalin-6-yl)acetamide], for which the IC50 is greater than 10 nM in assay [1] and 2010 to 5000 nM in assay [2].

With `CCOC(=O)CN1CCN(c2cc(OC)cc3c2cc(C)c(=O)n3C)c2cc(C#N)c(-c3cnn(C)c3)cc21` [Example 66, Ethyl 2-(6-cyano-4-(7-methoxy-1,3-dimethyl-2-oxo-1,2-dihydroquinolin-5-yl)-7-(1-methyl-1H-pyrazol-4-yl)-3,4-dihydroquinoxalin-1(2H)-yl)acetate], the IC50 was less than 50 nM in assay [1] and 2010 to 5000 nM in assay [2].

Regarding `Cc1cc2c(N3CCCc4ccc(C(F)F)cc43)nc(N3CCC(O)C3)cc2n(C)c1=O` (stereo not drawn) [Example 230], the IC50 in assay [1] was greater than 10 nM. For the same compound, the inhibition at 10 µM in assay [2] was 21%.

In the case of `Cc1cc2c(N3CCN(C)c4cc(-c5cnn(C(C)C)c5)ncc43)cc(N3CCOCC3)cc2n(C)c1=O` [Example 136], the figures for the IC50 in assay [1] and in assay [2] were less than 50 nM and 2010 to 5000 nM, respectively.

`COc1cc(N2CCN(C)c3ccc(S(=O)(=O)Nc4ccccc4)cc32)c2cc(C)c(=O)n(C)c2c1` [Example 102]: the IC50 in assay [1] is greater than 10 nM; in assay [2], 2010 to 5000 nM.

On to `COc1cc(N2CCCc3cc(N4CCN(C(C)=O)CC4)c(C#N)cc32)c2cc(C)c(=O)n(C)c2c1` [Example 182], for which the IC50 in assay [1] was less than 50 nM; in assay [2] it was 2010 to 5000 nM.

As for `Cc1cc2c(N3CCCc4cc(-c5cnn(C)c5)c(C(F)F)cc43)nc(N3CCC(O)C3)cc2n(C)c1=O` (stereo not drawn) [Example 208], the IC50 in assay [1] was less than 50 nM; in assay [2] it was 2010 to 5000 nM.

`Cc1cc2c(N3CCCc4cc(-c5cnn(C)c5)c(C(F)F)cc43)cc(C3CCOCC3)cc2n(C)c1=O` [Example 179]: the IC50 in assay [1] is less than 50 nM; in assay [2], 2010 to 5000 nM.

Consider `Cc1cc2c(N3CCN(C)c4cc(-c5cnn(C)c5)ncc43)cc(N3C[C@@H](C)O[C@@H](C)C3)cc2n(C)c1=O` [Example 133], for which the IC50 in assay [1] was in the range of 51 to 100 nM; in assay [2], 2010 to 5000 nM.

`CNC(=O)C1CCN(c2cc3c(cc(C)c(=O)n3C)c(N3CCN(C)c4cc(-c5cnn(C)c5)ncc43)n2)C1` (stereo not drawn) [Example 205]: the IC50 in assay [1] was in the range of 51 to 100 nM. In addition, the inhibition at 10 µM in assay [2] was found to be 43%.

For the compound `Cc1cc2c(N3CCCc4cc(-c5cnn(C)c5)c(C(F)F)cc43)nc(N3CC4CCC(C3)O4)cc2n(C)c1=O` [Example 217], the IC50 in assay [1] was less than 50 nM. Also, the inhibition at 10 µM in assay [2] turned out to be 46%.

Take `COc1cc(N2CCCc3cc(N4CCN(C(C)=O)CC4)ncc32)c2cc(C)c(=O)n(C)c2c1` [Example 166, 5-(6-(4-Acetylpiperazin-1-yl)-3,4-dihydro-1,7-naphthyridin-1(2H)-yl)-7-methoxy-1,3-dimethylquinolin-2(1H)-one]: the values for the IC50 in assay [1] and in assay [2] were 51 to 100 nM and 2010 to 5000 nM, respectively.

`Cc1cc2c(N3CCN(C)c4cc(-c5cnn(C)c5)ncc43)cc(N3CCOC(C)C3)cc2n(C)c1=O` (stereo not drawn) [Example 147]: in assay [1], the IC50 was in the range of 51 to 100 nM. In addition, in assay [2], the inhibition at 10 µM is 66%.

For the compound `COc1cc(N2CCN(C)c3cc(-c4cnn(C)c4)ncc32)c2cc(C)c(=O)n(C)c2c1` [Example 116, 7-Methoxy-1,3-dimethyl-5-(1-methyl-7-(1-methyl-1H-pyrazol-4-yl)-2,3-dihydropyrido[3,4-b]pyrazin-4(1H)-yl)quinolin-2(1H)-one], the IC50 in assay [1] lay in the range of 51 to 100 nM. In assay [2], the inhibition at 10 µM came out at 50%.

For the compound `Cc1cc2c(N3CCN(C)c4cc(-c5cnn(C)c5)ncc43)cc(OCc3ncco3)cc2n(C)c1=O` [Example 159], the IC50 is 51 to 100 nM in assay [1] and 2010 to 5000 nM in assay [2].

With `Cc1cc2c(N3CCN(C)c4ccc(S(N)(=O)=O)cc43)cccc2n(C)c1=O` [Example 85, 4-(1,3-dimethyl-2-oxo-1,2-dihydroquinolin-5-yl)-1-methyl-1,2,3,4-tetrahydroquinoxaline-6-sulfonamide], the IC50 in assay [1] was 51 to 100 nM; in assay [2], 2010 to 5000 nM.

As for `Cc1cc2c(N3CCN(C)c4cc(-c5cnn(C)c5)ncc43)cc(OC(F)F)cc2n(C)c1=O` [Example 129], the IC50 is greater than 10 nM in assay [1] and 2010 to 5000 nM in assay [2].

As for `Cc1cc2c(N3CCN(C)c4cc(F)c(S(N)(=O)=O)cc43)cccc2n(C)c1=O` [Example 87], the values for the IC50 in assay [1] and in assay [2] were 51 to 100 nM and 2010 to 5000 nM, respectively.

As to `COc1cc(N2CCCc3cc(-c4cnn(C)c4)ncc32)c2cc(C)c(=O)n(C)c2c1` [Example 167], the IC50 is less than 50 nM in assay [1] and 2010 to 5000 nM in assay [2].

As to `CNC(=O)CN1CCN(c2cc(N3CCOCC3)cc3c2cc(C)c(=O)n3C)c2cnc(-c3cnn(C)c3)cc21` [Example 165, 2-(4-(1,3-Dimethyl-7-morpholino-2-oxo-1,2-dihydroquinolin-5-yl)-7-(1-methyl-1H-pyrazol-4-yl)-3,4-dihydropyrido[3,4-b]pyrazin-1(2H)-yl)-N-methylacetamide], the IC50 in assay [1] was less than 50 nM. Further, the inhibition at 10 µM in assay [2] amounted to 51%.

For the compound `Cc1cc2c(N3CCN(C)c4cc(-c5cnn(C)c5)ncc43)cc(N3CCC4(COC4)C3)cc2n(C)c1=O` [Example 150], the figures for the IC50 in assay [1] and in assay [2] were less than 50 nM and 2010 to 5000 nM, respectively.

As to `Cc1cc2c(N3CCNc4cc(-c5cnn(C)c5)ncc43)cc(N3CCOCC3)cc2n(C)c1=O` [Example 161, 1,3-Dimethyl-5-(7-(1-methyl-1H-pyrazol-4-yl)-2,3-dihydropyrido[3,4-b]pyrazin-4(1H)-yl)-7-morpholinoquinolin-2(1H)-one], the IC50 in assay [1] was greater than 10 nM. Besides, the inhibition at 10 µM in assay [2] was 16%.
